Measured values from PMC10368966, “Safety and efficacy of AK0529 in respiratory syncytial virus‐infected infant patients: A phase 2 proof‐of‐concept trial” (Influenza and Other Respiratory Viruses, 2023).
“And” between values parts separate entries of the source, which are not always exact repeats. Identical values can stand only once. “Also recorded” adds a separate entry of the source. Like-named read-outs stand apart in the source and are kept apart here. Marks after values point to notes of the source that are not given here.

Assays:
[1] = Phase 2 study: safety and tolerability (adverse events); assay type: in vivo, human (infants)
Protocol: Safety and tolerability was evaluated by clinical assessment of safety data, including laboratory data, electrocardiographic data, vital signs, and adverse events (AEs).
(§1) Clinical safety and tolerability were assessed on the safety population, comprising all subjects who received ≥1 dose of study drug. Clinical variables were evaluated in the full analysis population, which included all subjects who received a dose of study drug and for whom ≥1 post‐treatment assessment was available. Pharmacokinetic analysis was performed on those subjects in the safety population for whom both pre‐ and post‐dose samples were available.

RSV infection = assay: Phase 2 study: Wang Respiratory Score; assay type: in vivo, human (infants); settings: for Hodges–Lehmann estimation of between-group difference in Wang Respiratory Score: Part 2, 2 mg/kg vs placebo, 96 h
[2] = system: laboratory strains of RSV-A and RSV-B; assay: Cytopathic effect (CPE) assay using Hep-2 cells; assay type: cell-based, human RSV; settings: human respiratory syncytial virus
Protocol: (§2) The EC90 value was determined in the presence of the known plasma protein binding in the CPE assay. […] To achieve a target efficacious concentration in humans, it was expected that a minimum target of 5 × EC90 value, or approximately 40 ng/mL should be attained. To maintain the effectiveness, this target Ctrough level was required to be achieved across the dosing interval.

[3] = system: clinical RSV isolates (31 A-subtypes and 29 B-subtypes); assay: Cytopathic and plaque reduction assays against clinical RSV isolates; assay type: cell-based
Protocol: AK0529 (ziresovir) is a potent, selective, and orally bioavailable RSV F protein inhibitor.[9]
as §2

[4] = system: recombinant RSV T400I variant; assay: Resistance test with recombinant RSV T400I variant
[5] = Phase 2 study: population pharmacokinetics of plasma concentrations; assay type: in vivo, human (infants); settings: for Tmax / AUC(0-t) / Cmax / AUC(0-inf) / half-life: human, plasma; for Cmax: read-out: Cmax mean (CV %); for AUC(0-inf): read-out: AUC0–∞ mean (CV %); for half-life: read-out: t½ mean (CV %) (converted)
Protocol: Individual plasma concentrations of the active drug were measured, and PK were determined using nonlinear mixed‐effect models. In all cases, when new data were available, the updated model was used for evaluation under the assumption of an allometric coefficient of 0.75 and incorporation of CYP maturation. Using a Population PK (Pop‐PK) analysis approach, AUC0–∞, clearance (CL/F), volume of distribution (Vc/F), and other PK parameters were estimated for AK0529. Maximum plasma concentration (Cmax) was computed from the predicted profiles.
as §1

[6] = parameters: method as in Supporting Information; settings: multiple doses up to 300 mg bid ref Supporting Information; cited from earlier work
[7] = system: clinical RSV isolates (31 A-subtypes and 29 B-subtypes); parameters: method as in PMID 31194544; settings: all clinical RSV isolates (31 A-subtypes and 29 B-subtypes) ref 9; cited from earlier work
[8] = TEAE, preferred term, AK0529 N=49
[9] = TEAE, system organ class, AK0529 N=49
[10] = Part 1, single oral dose 0.5 mg/kg
[11] = Part 1, single oral dose 1.0 mg/kg
[12] = Part 1, single oral dose 2.0 mg/kg
[13] = Part 1, single oral dose 4.0 mg/kg

Q: Which “Subjects with any AEs” value ([1]; AK0529 all doses N = 49) does the source give for `Cc1ccc2nc(N3CCS(=O)(=O)c4ccccc4C3)nc(NCC3(N)COC3)c2c1` [AK0529, ziresovir] here?
A: 25 (51.0%) n (%)

Q: And the “Subjects with any TEAEs” value ([1]; AK0529 all doses N = 49)?
A: 24 (49.0%) n (%)

Q: And the “Subjects with any TEAEs induced withdrawal” value ([1]; AK0529 all doses N = 49)?
A: 0 n (%)

Q: What about the “Subjects with any TEAEs leading to death” value ([1]; AK0529 all doses N = 49) of the same compound?
A: 0 n (%)

Q: And the “Subjects with any drug related TEAEs” value ([1]; AK0529 all doses N = 49)?
A: 3 (6.1%) ^a n (%)

Q: And the “Subjects with any grade ≥3 TEAEs” value ([1]; AK0529 all doses N = 49)?
A: 2 (4.1%) ^c n (%)

Q: And the “Subjects with any serious TEAEs” value ([1]; AK0529 all doses N = 49, two cases of unrelated pneumonia)?
A: 2 (4.1%) ^b n (%)

Q: And the “patients reporting grade ≥1 TEAEs” value ([1]; AK0529 group 24/49)?
A: 49.0%

Q: What about the “subjects with Grade 1 TEAE considered drug-related by the investigator” value ([1]; AK0529 group, three subjects) of the same compound?
A: 6%

Q: What about the “patients experiencing a serious TEAE” value ([1]; AK0529 group, two of 49, none related to drug treatment) of the same compound?
A: 4.1%

Q: And the “withdrawals or deaths because of TEAEs” value ([1]; AK0529 groups)?
A: No withdrawals or deaths; also recorded: none led to death or withdrawal from the study

Q: And the “patients with grade ≥3 treatment-emergent adverse events” value ([1]; AK0529 groups 2/49)?
A: 4.1%

Q: And the Acute tonsillitis [1, 8]?
A: 1 (2.0%) n (%)

Q: And the Anemia [1, 8]?
A: 1 (2.0%) n (%)

Q: And the Aspartate aminotransferase increased [1, 8]?
A: 3 (6.1%) n (%)

Q: And the Candida infection [1, 8]?
A: 1 (2.0%) n (%)

Q: And the Conjunctivitis [1, 8]?
A: 1 (2.0%) n (%)

Q: And the Constipation [1, 8]?
A: 0 n (%)

Q: What about the Dermatitis [1, 8] of the same compound?
A: 1 (2.0%) n (%)

Q: And the Dermatitis diaper [1, 8]?
A: 4 (8.2%) n (%)

Q: And the Diarrhea [1, 8]?
A: 2 (4.1%) n (%)

Q: And the Epistaxis [1, 8]?
A: 2 (4.1%) n (%)

Q: What about the Erythema of eyelid [1, 8] of the same compound?
A: 1 (2.0%) n (%)

Q: What about the Eye pruritus [1, 8] of the same compound?
A: 0 n (%)

Q: What about the Flatulence [1, 8] of the same compound?
A: 1 (2.0%) n (%)

Q: And the Gastrointestinal inflammation [1, 8]?
A: 1 (2.0%) n (%)

Q: And the Hematochezia [1, 8]?
A: 0 n (%)

Q: What about the Hepatitis [1, 8] of the same compound?
A: 2 (4.1%) n (%)

Q: And the Hyperkalemia [1, 8]?
A: 2 (4.1%) n (%)

Q: And the Hyperphosphatemia [1, 8]?
A: 1 (2.0%) n (%)

Q: And the Impaired gastric emptying [1, 8]?
A: 0 n (%)

Q: What about the Injection site extravasation [1, 8] of the same compound?
A: 1 (2.0%) n (%)

Q: And the Leukocytosis [1, 8]?
A: 1 (2.0%) n (%)

Q: What about the Metabolic acidosis [1, 8] of the same compound?
A: 1 (2.0%) n (%)

Q: And the Nasopharyngitis [1, 8]?
A: 1 (2.0%) n (%)

Q: What about the Oral candidiasis [1, 8] of the same compound?
A: 1 (2.0%) n (%)

Q: And the Otitis media acute [1, 8]?
A: 2 (4.1%) n (%)

Q: And the Pneumonia [1, 8]?
A: 3 (6.1%) n (%)

Q: And the Pyrexia [1, 8]?
A: 1 (2.0%) n (%)

Q: And the Rash [1, 8]?
A: 1 (2.0%) n (%)

Q: And the Rotavirus test positive [1, 8]?
A: 0 n (%)

Q: What about the Thrombocytosis [1, 8] of the same compound?
A: 1 (2.0%) n (%)

Q: What about the Transaminases increased [1, 8] of the same compound?
A: 2 (4.1%) n (%)

Q: What about the “Upper respiratory tract infection” value [1, 8] of the same compound?
A: 1 (2.0%) n (%)

Q: What about the “Urine ketone body present” value [1, 8] of the same compound?
A: 1 (2.0%) n (%)

Q: What about the Vomiting [1, 8] of the same compound?
A: 1 (2.0%) n (%)

Q: What about the “Blood and lymphatic system disorders” value [1, 9] of the same compound?
A: 3 (6.1%) n (%)

Q: And the Eye disorders [1, 9]?
A: 1 (2.0%) n (%)

Q: And the Gastrointestinal disorders [1, 9]?
A: 5 (10.2%) n (%)

Q: What about the “General disorders and administration site conditions” value [1, 9] of the same compound?
A: 1 (2.0%) n (%)

Q: And the Hepatobiliary disorders [1, 9]?
A: 2 (4.1%) n (%)

Q: And the Infections and infestations [1, 9]?
A: 5 (10.2%) n (%)

Q: And the “Injury, poisoning and procedural complications” value [1, 9]?
A: 1 (2.0%) n (%)

Q: What about the Investigations [1, 9] of the same compound?
A: 6 (12.2%) n (%)

Q: What about the “Metabolism and nutrition disorders” value [1, 9] of the same compound?
A: 4 (8.2%) n (%)

Q: What about the “Respiratory, thoracic and mediastinal disorders” value [1, 9] of the same compound?
A: 6 (12.2%) n (%)

Q: And the “Skin and subcutaneous tissue disorders” value [1, 9]?
A: 6 (12.2%) n (%)

Q: And the overall tolerability ([1]; hospitalized RSV-infected infant patients)?
A: well tolerated

Q: And the Bacterial infection ([1]; human, in vivo)?
A: 0 n (%)

Q: What about the “median Wang Respiratory Score change” value (RSV infection; Part 1, single dose, baseline to 24 h, one-sided p = 0.004 combined AK0529 groups vs placebo) of the same compound?
A: decreased from baseline to 24 h in a dose‐related manner

Q: And the “median reduction in Wang Respiratory Score from baseline” value (RSV infection; Part 2, 2 mg/kg bid, baseline to 96 h, 95% CI −4.51, −2.03, placebo −2.0, one-sided p = 0.031)?
A: −4.0

Q: What about the “Hodges–Lehmann estimation of between-group difference in Wang Respiratory Score” value (RSV infection; full analysis population, 95% CI −2, 1) of the same compound?
A: −1

Q: What about the “Hodges–Lehmann estimation of between-group difference in Wang Respiratory Score” value (RSV infection; two cases of bacterial pneumonia excluded, 95% CI −2, 0, p = 0.009) of the same compound?
A: −1

Q: What about the “patients achieving disease remission (Wang Respiratory Score ≤1)” value (RSV infection; post-hoc, 2 mg/kg bid, by Day 5, 8/11 patients, placebo 31%, p 0.0412) of the same compound?
A: 73%

Q: What about the minimum target trough concentration (5 × EC90) ([2]; HEp-2, target Ctrough in humans, read-out: 5 × EC90 value (minimum target efficacious concentration)) of the same compound?
A: 0.04 µg/mL

Q: What about the EC90 ([2]; Hep-2 cells, CPE assay, read-out: EC90 of the RSV-induced reduction of cell viability (average)) of the same compound?
A: 5 nM and 0.0022 µg/mL

Q: And the “potency against various RSV clinical isolates compared with laboratory strains” value [3]?
A: remained the same

Q: And the “susceptibility of recombinant RSV T400I variant” value [4]?
A: resistance

Q: What about the “elimination half-life in subjects aged <6 months” value ([5]; Part 1, compared with older subjects) of the same compound?
A: slightly longer

Q: What about the “time to reach Cmax” value ([5]; Part 1, single doses except 4 mg/kg) of the same compound?
A: around 4 h

Q: What about the “change in AUC with dose” value ([5]; Part 1, single doses up to 4 mg/kg, no apparent plateau) of the same compound?
A: dose‐dependent increase

Q: And the targeted drug exposure ([5]; Part 2, 2 mg/kg bid)?
A: reached

Q: What about the “dose proportionality of mean Cmax and AUCτ” value ([5]; Part 2, across the dose range tested) of the same compound?
A: approximate dose proportionality

Q: What about the “increase in AUCτ from Days 1 to 5 (accumulation)” value ([5]; Part 2, bid dosing) of the same compound?
A: approximately 1.5 fold

Q: What about the median trough ([5]; Part 2, bid dosing) of the same compound?
A: 12 h

Q: What about the Tmax ([5]; oral, Part 2, Days 1 and 5, read-out: median tmax) of the same compound?
A: 2.5 to 3.8 h

Q: And the AUC(0-t) ([5]; oral, Part 1, single doses up to 4 mg/kg, read-out: AUC0–24)?
A: ≤ 7780 ng·h/mL

Q: What about the Tmax ([5]; po, 0.5 mg/kg, Part 1, single oral dose 0.5 mg/kg, read-out: tmax median (range)) of the same compound?
A: 4.5 h

Q: What about the Tmax ([5]; po, 1 mg/kg, Part 1, single oral dose 1.0 mg/kg, read-out: tmax median (range)) of the same compound?
A: 4.3 h

Q: What about the Tmax ([5]; po, 2 mg/kg, Part 1, single oral dose 2.0 mg/kg, read-out: tmax median (range)) of the same compound?
A: 3.3 h

Q: What about the Tmax ([5]; po, 4 mg/kg, Part 1, single oral dose 4.0 mg/kg, read-out: tmax median (range)) of the same compound?
A: ~2 h

Q: And the Cmax ([5]; Part 1, single oral dose 0.5 mg/kg, N 4, all younger than 6 months)?
A: 158 ng/mL

Q: What about the AUC(0-t) ([5]; Part 1, single oral dose 0.5 mg/kg, read-out: AUC0–24 mean (CV %)) of the same compound?
A: 1770 ng·h/mL

Q: And the AUC(0-inf) [5, 10]?
A: 2060 ng·h/mL

Q: And the half-life [5, 10]?
A: 7.7 h

Q: And the Cmax ([5]; Part 1, single oral dose 1.0 mg/kg, N 6)?
A: 302 ng/mL

Q: What about the AUC(0-t) ([5]; Part 1, single oral dose 1.0 mg/kg, read-out: AUC0–24 mean (CV %)) of the same compound?
A: 2890 ng·h/mL

Q: What about the AUC(0-inf) [5, 11] of the same compound?
A: 3150 ng·h/mL

Q: And the half-life [5, 11]?
A: 5.7 h

Q: And the Cmax ([5]; Part 1, single oral dose 2.0 mg/kg, N 4)?
A: 375 ng/mL

Q: What about the AUC(0-t) ([5]; Part 1, single oral dose 2.0 mg/kg, read-out: AUC0–24 mean (CV %)) of the same compound?
A: 3790 ng·h/mL

Q: What about the AUC(0-inf) [5, 12] of the same compound?
A: 4200 ng·h/mL

Q: And the half-life [5, 12]?
A: 6.2 h

Q: What about the Cmax ([5]; Part 1, single oral dose 4.0 mg/kg, N 3 incl. one subject of Study AK0529-1002) of the same compound?
A: 888 ng/mL

Q: What about the AUC(0-t) ([5]; Part 1, single oral dose 4.0 mg/kg, read-out: AUC0–24 mean (CV %)) of the same compound?
A: 7780 ng·h/mL

Q: And the AUC(0-inf) [5, 13]?
A: 8280 ng·h/mL

Q: What about the half-life [5, 13] of the same compound?
A: 6 h

Q: What about the tolerability [6] of the same compound?
A: good tolerability

Q: And the “antiviral activity EC90” value [7]?
A: nanomolar concentrations
